This experiment deals with speedwell. As to the kind of experiment: Test C preemergence/postemergence greenhouse plant response rating 0 to 100. The class given is in vivo, Veronica persica. As to conditions: for Plant response rating Speedwell: 0 to 100 scale. The source says:
The compounds evaluated in this test were formulated in a non-phytoxic solvent and applied to the soil surface before plant seedlings emerged (preemergence application), to water that covered the soil surface (flood application), and to plants that were in the one-to-four leaf stage (postemergence application). A sandy loam soil was used for the preemergence and postemergence tests, while a silt loam soil was used in the flood test. Water depth was approximately 2.5 cm for the flood test and was maintained at this level for the duration of the test. Plant species in the preemergence and postemergence tests consisted of barley (Hordeum vulgare), bedstraw (Galium aparine), blackgrass (Alopecurus myosuroides), chickweed (Stellaria media), corn (Zea mays), cotton (Gossypium hirsutum), crabgrass (Digitaria sanguinalis), downy brome (Bromus tectorum), giant foxtail (Setaria faberii), lambsquarters (Chenopodium album), morningglory (Ipomoea hederacea), pigweed ([…]), rape (Brassica napus), ryegrass (Lolium multiflorum), sorghum (Sorghum bicolor), soybean (Glycine max), speedwell (Veronica persica), sugar beet (Beta vulgaris), velvetleaf (Abutilon theophrasti), wheat (Triticum aestivum), wild buckwheat (Polygonum convolvulus), and wild oat (Avena fatua). All plant species were planted one day before application of the compound for the preemergence portion-of this test. Plantings of these species were adjusted to produce plants of appropriate size for the post-emergence portion of the test. […] All plant species were grown using normal greenhouse practices. Visual evaluations of injury expressed on treated plants, when compared to untreated controls, were recorded approximately fourteen to twenty one days after application of the test compound. […] A dash (-) response means no test result.

On to `CC(C)Oc1cc(-c2nn3c(c2Br)CCCC3)c(F)cc1Cl` [Compound 38], for which the “Plant response rating (0 to 100), Speedwell” value is, setting by setting: (PREEMERGENCE, Rate 1 g/ha) 0; (PREEMERGENCE, Rate 4 g/ha) 0; (Rate 16 g/ha, PREEMERGENCE) 0.

Turning to `CC(C)OC(=O)COc1cc(-c2nn3c(c2Cl)CCCC3)c(F)cc1Cl` [Compound 39], the “Plant response rating Speedwell” value runs as follows: (POSTEMERGENCE, 62 g/ha) 95; (POSTEMERGENCE, 125 g/ha) 100. For the same compound, the “Plant response rating (0 to 100), Speedwell” value is, setting by setting: (Rate 16 g/ha, POSTEMERGENCE) 90; (Rate 31 g/ha, POSTEMERGENCE) 90.

With `C=C(Cl)COc1cc(-c2nn3c(c2Cl)CCCC3)c(F)cc1Cl` [Compound 40], the “Plant response rating Speedwell” value was 100 (POSTEMERGENCE, 62 g/ha) and 100 (POSTEMERGENCE, 125 g/ha). Further, the “Plant response rating (0 to 100), Speedwell” value by setting is: (Rate 16 g/ha, POSTEMERGENCE) 90; (Rate 31 g/ha, POSTEMERGENCE) 95.

As for `C=CCN1C(=O)COc2cc(F)c(-c3nn4c(c3Br)CCCC4)cc21` [Compound 41], the “Plant response rating Speedwell” value reads like this: (POSTEMERGENCE, 62 g/ha) 100; (POSTEMERGENCE, 125 g/ha) 100. Besides, the “Plant response rating (0 to 100), Speedwell” value runs as follows: (Rate 16 g/ha, POSTEMERGENCE) 100; (Rate 31 g/ha, POSTEMERGENCE) 100.

Regarding `CCOC(=O)COc1cc(-c2nn3c(c2Cl)CCCC3)c(F)cc1Cl` [Compound 42], the “Plant response rating Speedwell” value reads like this: (POSTEMERGENCE, 62 g/ha) 100; (POSTEMERGENCE, 125 g/ha) 100. Moreover, the “Plant response rating (0 to 100), Speedwell” value came to 95 (Rate 16 g/ha, POSTEMERGENCE) and 100 (Rate 31 g/ha, POSTEMERGENCE).

For the compound `Fc1cc(Cl)c(OCCCl)cc1-c1nn2c(c1Cl)CCCC2` [Compound 49], the “Plant response rating Speedwell” value (POSTEMERGENCE, 62 g/ha) stood at 100 and the “Plant response rating Speedwell” value (POSTEMERGENCE, 250 g/ha) is reported as 100. Moreover, the “Plant response rating (0 to 100), Speedwell” value by setting is: (POSTEMERGENCE, Rate 4 g/ha) 85; (Rate 16 g/ha, POSTEMERGENCE) 100.

As to `C#CC(C)N1C(=O)COc2cc(F)c(-c3nn4c(c3Cl)CCCC4)cc21` (stereo not drawn) [Compound 50], for the setting “POSTEMERGENCE, 62 g/ha”, the “Plant response rating Speedwell” value is 100. Besides, the “Plant response rating (0 to 100), Speedwell” value stood at 0 (POSTEMERGENCE, Rate 1 g/ha); 70 (POSTEMERGENCE, Rate 4 g/ha); 100 (Rate 16 g/ha, POSTEMERGENCE).

With `Fc1cc(Cl)ccc1-c1nn2c(c1Br)CCCC2` [Compound 52], the “Plant response rating Speedwell” value runs as follows: (POSTEMERGENCE, 125 g/ha) 100; (PREEMERGENCE, 125 g/ha) 100. In addition, the “Plant response rating (0 to 100), Speedwell” value (PREEMERGENCE, Rate 2 g/ha) was determined as 0; the “Plant response rating (0 to 100), Speedwell” value (Rate 8 g/ha, POSTEMERGENCE) amounted to 30; the “Plant response rating (0 to 100), Speedwell” value (Rate 8 g/ha, PREEMERGENCE) was found to be 0; the “Plant response rating (0 to 100), Speedwell” value (Rate 31 g/ha, POSTEMERGENCE) came out at 100; the “Plant response rating (0 to 100), Speedwell” value (Rate 31 g/ha, PREEMERGENCE) is given as 20.

Take `CCN1C(=O)COc2cc(F)c(-c3nn4c(c3Cl)CCCC4)cc21` [Compound 54]: the “Plant response rating Speedwell” value (POSTEMERGENCE, 62 g/ha) is reported as 100. The “Plant response rating (0 to 100), Speedwell” value (POSTEMERGENCE, Rate 1 g/ha) came out at 100; the “Plant response rating (0 to 100), Speedwell” value (POSTEMERGENCE, Rate 4 g/ha) is recorded as 100; the “Plant response rating (0 to 100), Speedwell” value (PREEMERGENCE, Rate 1 g/ha) amounted to 50; the “Plant response rating (0 to 100), Speedwell” value (PREEMERGENCE, Rate 4 g/ha) is on record as 100; the “Plant response rating (0 to 100), Speedwell” value (Rate 16 g/ha, POSTEMERGENCE) is 100; the “Plant response rating (0 to 100), Speedwell” value (Rate 16 g/ha, PREEMERGENCE) was 100.

For the compound `COCN1C(=O)COc2cc(F)c(-c3nn4c(c3Cl)CCCC4)cc21` [Compound 55], the “Plant response rating Speedwell” value (POSTEMERGENCE, 62 g/ha) is recorded as 100. In addition, the “Plant response rating (0 to 100), Speedwell” value stood at 60 (POSTEMERGENCE, Rate 1 g/ha); 100 (POSTEMERGENCE, Rate 4 g/ha); 100 (Rate 16 g/ha, POSTEMERGENCE).

With `C#CCN1C(=O)COc2cc(F)c(-c3nn4c(c3Br)CCCC4)cc21` [Compound 56], the “Plant response rating Speedwell” value (POSTEMERGENCE, 62 g/ha) is on record as 100. Also, the “Plant response rating (0 to 100), Speedwell” value is, setting by setting: (POSTEMERGENCE, Rate 1 g/ha) 100; (POSTEMERGENCE, Rate 4 g/ha) 100; (Rate 16 g/ha, POSTEMERGENCE) 100.

Turning to `COCOc1cc(-c2nn3c(c2Cl)CCCC3)c(F)cc1Cl` [Compound 58], the “Plant response rating Speedwell” value is, setting by setting: (POSTEMERGENCE, 125 g/ha) 100; (PREEMERGENCE, 125 g/ha) 100. Besides, the “Plant response rating (0 to 100), Speedwell” value worked out at 40 (POSTEMERGENCE, Rate 2 g/ha); 0 (PREEMERGENCE, Rate 2 g/ha); 70 (Rate 8 g/ha, POSTEMERGENCE); 100 (Rate 8 g/ha, PREEMERGENCE); 100 (Rate 31 g/ha, POSTEMERGENCE); 100 (Rate 31 g/ha, PREEMERGENCE).

As for `CCOCOc1cc(-c2nn3c(c2Cl)CCCC3)c(F)cc1Cl` [Compound 59], the “Plant response rating Speedwell” value reads like this: (POSTEMERGENCE, 125 g/ha) 100; (PREEMERGENCE, 125 g/ha) 100. For the same compound, the “Plant response rating (0 to 100), Speedwell” value is, setting by setting: (POSTEMERGENCE, Rate 2 g/ha) 100; (Rate 8 g/ha, POSTEMERGENCE) 100; (Rate 8 g/ha, PREEMERGENCE) 50; (Rate 31 g/ha, POSTEMERGENCE) 100; (Rate 31 g/ha, PREEMERGENCE) 100.

As to `CCCN1C(=O)COc2cc(F)c(-c3nn4c(c3Br)CCCC4)cc21` [Compound 63], under “PREEMERGENCE, 250 g/ha”, the “Plant response rating Speedwell” value is listed as 100. Further, the “Plant response rating (0 to 100), Speedwell” value runs as follows: (PREEMERGENCE, Rate 4 g/ha) 0; (Rate 16 g/ha, PREEMERGENCE) 90.

With `C#CC(C)Oc1cc(-c2nn3c(c2Br)CCCC3)c(F)cc1Cl` (stereo not drawn) [Compound 66], the “Plant response rating Speedwell” value reads like this: (POSTEMERGENCE, 62 g/ha) 100; (POSTEMERGENCE, 250 g/ha) 100; (PREEMERGENCE, 250 g/ha) 100. Moreover, the “Plant response rating (0 to 100), Speedwell” value is reported as 100 (POSTEMERGENCE, Rate 4 g/ha); 0 (PREEMERGENCE, Rate 4 g/ha); 100 (Rate 16 g/ha, POSTEMERGENCE); 90 (Rate 16 g/ha, PREEMERGENCE).

Take `COCN1C(=O)COc2cc(F)c(-c3nn4c(c3Br)CCCC4)cc21` [Compound 67]: under “POSTEMERGENCE, 62 g/ha”, the “Plant response rating Speedwell” value amounted to 100. In addition, the “Plant response rating (0 to 100), Speedwell” value (POSTEMERGENCE, Rate 1 g/ha) stood at 90; the “Plant response rating (0 to 100), Speedwell” value (POSTEMERGENCE, Rate 4 g/ha) is 100; the “Plant response rating (0 to 100), Speedwell” value (Rate 16 g/ha, POSTEMERGENCE) is given as 100.

The record behind these values is patent US6358885B1, “Substituted phenylheterocyclic herbicides” (Mississippi State University, priority 1992, dated 2002).
